Test results: patent publication US10390536B2, “Methods, compounds and compositions for repelling insects and/or arachnids” (National Center for Scientific Research “Demokritos”, priority 2013, dated 2019)

Assays:
Type in all cases: in vivo
[1] = test system: Anopheles gambiae (Giles) ss strain 16CSS female mosquitoes; test: warm body repellence assay (mosquito landings); conditions: for median repellency (%) at 20 nmol/cm2: Anopheles gambiae, 2 min, 20 nmole per cm^2, read-out: Median Repellency (%)
Protocol: To test the behavior of female mosquitoes to an essential oil containing OBP binding components, a previously described repellence assay [Kröber et al. (2010). An In Vitro Assay for Testing Mosquito Repellents Employing a Warm Body and Carbon Dioxide as a Behavioral Activator. Journal of the American Mosquito Control Association 26(4) 381-386] was conducted that measures the number of mosquito landings on a warm surface onto which an essential oil containing at least one candidate compound was applied.
To conduct a repellency assay, a selected essential oil or ethanol negative control was applied to a warm body at a dose of about 3.8 μg/cm^2 and allowed to dry for 40 seconds in order to allow evaporation of the solvent before introduction into the test cage with mosquitoes. As positive control for repellence, DEET dissolved in ethanol was applied to the warm body at the same dose. The treated warm body in conjunction with a pulse of carbon dioxide was introduced into the test cage containing fifty Anopheles gambiae (Giles) ss strain 16CSS female mosquitoes that were 4-11 days old and the number of mosquito landings on the warm body occurring within a 2-minute period was counted. Each candidate compound was tested in five different cages (i.e., 250 female mosquitoes) in a randomized design, and the ethanol control and up to four candidate compounds were tested in each cage. Raw data on numbers of landings by mosquitoes were analyzed using a linear mixed model accounting for treatment, experimental day, the individual cage, the number of females per cage and the level of the carbon dioxide pulse in ppm using R (R Development Core Team, 2010) and the packages LME4 (Bates and Maechler, Ime4: Linear mixed-effects models using {S4} classes.{R} package version 0.999375-32, 2009) and NLME (Pinheiro et al, nlme: Linear and Nonlinear Mixed Effects Models, 2010; the R Development Core Team, R: A Language and Environment for Statistical Computing, 2010). Repellent values were calculated from counted landings on treatments versus the overall landings on pooled controls.
To test the behavior of female mosquitoes to a candidate compound identified in Example 5, behavioral assays were made using the identified compounds. The repellent assay was performed as described in Example 3, except that candidate compounds were dissolved in ethanol and tested initially at doses between 1.0 and 5.0 μg/cm^2 (about 5-31.5 nmole/cm^2) and, whenever necessary, at lower and/or higher doses as well. Besides the compounds identified in Example 5, compounds related to these were also tested including ethyl-cinnamate and butyl-cinnamate (Table 4).
To test the behavior of female mosquitoes to various combinations of candidate compounds identified in Example 6, repellence assays were made as in Example 3. These repellent assays were made to compare the effectiveness of the strongest repellent compounds identified in Example 6, including, without limitation, carvacrol, ethyl cinnamate, butyl cinnamate, and cumin alcohol with that of DEET.
The doses tested were 2, 4, 6 10 and 20 nmol/cm^2 for the single compounds. The binary 50:50 mixtures were tested at 2, 6, 10 and 20 nmol/cm^2, with each compound making up half the amount tested, so that, for example, the 2 nmol/cm^2 concentration in column A+B represents 1 nmol/cm^2 of A and 1 nmol/cm^2 of B in a binary mixture. DEET was also tested at 25 nmol (top response) and carvacrol was tested at the additional dose of 2.5 nmol (second from left within its column). As an indication, DEET at 20 nmol/cm^2=3.8 μg/cm^2. Mosquitoes were activated using a puff of CO2 from a gas tank upon introduction of the warm body into the test cage containing 50±5 A. gambiae females and mosquito landings were counted for 2 minutes. Each treatment (dose) was tested using five test cages, i.e. on a total of 250 female A. gambiae. […]

Anopheles gambiae s.l. = test: experimental hut field trial of spatial repellence, Anopheles; conditions: single compound, 1 ml in open vial in MM-X trap, per night
Protocol: (§1) To test the effects of repellent compounds or compositions disclosed herein on mosquitoes in a controlled environment resembling actual living quarters and conditions, field trials with standardized experimental huts were conducted at Kainji Dam in North Central Nigeria.
(§2) Six such huts were built in a straight line, and the distance between huts was 11 meters. These huts follow a traditional square design, the walls are built with concrete blocks that are subsequently plastered with cement, each wall has a window. The ceiling is plywood and the roof is thatched with eaves that are open, thereby allowing free flow of air into and out of the hut, and thus entry and exit of mosquitoes. There is a door for entry and exit. Two opposing sides of each hut have window exit traps and screened verandas to capture mosquitoes leaving via the windows or eaves. Each hut is raised off the ground on a concrete platform and surrounded by a moat filled with water in order to prevent ants from entering. Each hut is fitted with a mattress and an untreated bed net for sleepers. These huts are similar in design and concept to those used previously elsewhere for studying mosquito behavior and measuring the efficacy of various mosquito control products or intervention methods in Tanzania and Gambia. For design parameters refer to WHOPES 2005. The huts are adjacent to a tributary of the River Niger at a distance of 10 km from the Kainji Dam site and face rice fields known to harbor permanent mosquito breeding sites. The mosquitoes endemic to this area of Nigeria are highly endophillic, that is, they rest mainly indoors.
(§3) Human volunteers that participated as sleepers in this field trial were provided with anti-malarial chemical prophylaxis on a weekly basis, and the protocols used herein were reviewed and approved by the Research Ethics Review Committee of the Nigerian Institute of Medical Research. Six male adult volunteers, aged between 25 and 35 years old, were recruited to sleep in the huts described above. Sleepers were allocated to huts randomly for each series of trials, and this randomization process occurred nightly. The volunteers entered the huts by 21:00 each night and remained inside the huts until 06:30 the following morning. Each morning, the windows were closed and the exit traps blocked with a piece of cloth to prevent mosquitoes that entered from exiting. The traps were then put in a freezer at −20° C. to kill all the mosquitoes before being emptied for identification. By means of a sucking aspirator the verandas and rooms were visually searched for live mosquitoes and any insects found were collected in labelled cups. A 10-minute search was conducted for each hut (room and veranda traps). The exit traps were emptied into a labelled cup and all the mosquitoes placed in the freezer at −20° C. for about 30 minutes before morphological identification.
(§4) The Mosquito Magnet trap Model-X (MM-X trap made by the firm formerly known as American Biophysics (ABC), USA) is a 12V battery operated counter-flow trap that was used as the repellent dispersing device to evaluate the efficacy of repellent compounds or compositions disclosed herein. Four compounds, carvacrol, cumin alcohol, ethyl cinnamate, and butyl cinnamate, were evaluated in comparison to DEET as a nonproprietary conventional repellent in a first experiment. The chemical compounds were provided in liquid form: carvacrol (98%), butyl cinnamate (98%), ethyl cinnamate (98%), cumin alcohol (97%) and DEET (97%). […]

Culex spp. = test: experimental hut field trial of spatial repellence, Culex; conditions: single compound, 1 ml in open vial in MM-X trap, per night
Protocol: as §1, §2, §3, §4

[2] = test system: sand fly Lutzomyia longipalpis; test: warm body repellence assay with sand flies; conditions: 2 minutes, control 48
Protocol: To test the effects of repellent compounds or compositions disclosed herein on other blood-feeding arthropods, a warm body repellence assay (Krober et. al. (2010). An In Vitro Assay for Testing Mosquito Repellents Employing a Warm Body and Carbon Dioxide as a Behavioral Activator. Journal of the American Mosquito Control Association 26(4): 381-386] was conducted using the sand fly Lutzomyia longipalpis (Diptera: Psychodidae), the principal vector of Leishmania (or leismaniasis) in the Americas.
[…] Fifty L. longipalpis sandflies (male:female ratio 1:1) of 3-7 days old were tested during the scotophase under conditions described for A. gambiae in Example 6. The test cages were lined with filter paper. Reduction in the number of landings by L. longipalpis sand fly females on a warm body treated with different test products compared to the control with solvent (ethanol p.a.) alone was used to evaluate repellence. Tests were conducted in complete darkness using IR LEDs to illuminate the warm body. Landings counted during 2 minutes were normalized by experimental day, cage, and number of females by a mixed linear model before testing for differences.

[3] = 2 nmol (per cm^2, total for mixtures, 50:50)
[4] = 4 nmol (per cm^2, total for mixtures, 50:50)
[5] = 6 nmol (per cm^2, total for mixtures, 50:50)
[6] = 20 nmol (per cm^2, total for mixtures, 50:50)

Row | Compound | Median repellence % [1, 3] [%] | Median repellence % [1, 4] [%] | Median repellence % [1, 5] [%] | Median repellence % ([1]; 10 nmol (per cm^2, total for mixtures, 50:50)) [%] | Median repellence % [1, 6] [%] | median repellency (%) at 20 nmol/cm2 [1] [%] | spatial repellent effect, induced exophily (in words) (Anopheles gambiae s.l.) | spatial repellent effect, induced exophily (in words) (Culex spp.) | Median of landings ([2]; 20 nmol/cm^2) | Median of landings ([2]; 200 nmol/cm^2)
1 | CCCCOC(=O)C=Cc1ccccc1 [butyl-cinnamate, butyl 3-phenylprop-2-enoate] | −1 | 28 | 61 | 68 | 89 | 88.7 | significantly lower than that of DEET | significantly lower than that of DEET | 49 | 40
2 | CCOC(=O)C=Cc1ccccc1 [(E)-ethyl-cinnamate, ethyl 3-phenylprop-2-enoate] | −18 | 18 | 35 |  | 83 | 82.8 | significantly lower than that of DEET | significantly lower than that of DEET |  | 
